The text below walks through data of ChEMBL document CHEMBL1139150, “Design of antimicrobial compounds based on peptide structures” (Bioorg Med Chem Lett, 2007).

The test system of one data set is Escherichia coli. Description: Antibacterial activity against Escherichia coli. The class given is functional.
A further data set deals with Bacillus subtilis. Description: Antibacterial activity against Bacillus subtilis. The class given is functional.
Data set [1] in a line: Induction of erythrocyte lysis at 100 uM. The class given is cell-based. The following applies: human, erythrocytes; read-out: Activity.

SMILES strings stand for the structures. ≈ marks a conversion by molar mass, not a printed value. Peptide text beside a SMILES is read from it.

As a reminder, the MIC is the lowest concentration found to suppress growth. Read a low MIC as inhibition by little substance. Turning to `N=C(N)NCCCCCNC(=O)[C@H](Cc1c[nH]c2ccccc12)NC(=O)c1cc(C(=O)N[C@@H](Cc2c[nH]c3ccccc23)C(=O)NCCCCCNC(=N)N)cc(C(=O)N[C@@H](Cc2c[nH]c3ccccc23)C(=O)NCCCCCNC(=N)N)c1`, the MIC stood at 15.6 µM (≈ 17.9 µg/mL) with Escherichia coli and 2 µM (≈ 2.29 µg/mL) in the data set with Bacillus subtilis. Besides, the hemolysis at 100 µM in data set [1] worked out at 22.6%.
`NCCCCCNC(=O)[C@@H](N)Cc1c[nH]c2ccccc12`: the MIC against Escherichia coli and against Bacillus subtilis was > 250 µM in each case. For the same molecule, the hemolysis at 100 µM in data set [1] was < 1%.
With `NCCNC(=O)[C@@H](N)Cc1c[nH]c2ccccc12`, the MIC with Escherichia coli and against Bacillus subtilis was > 250 µM each time. The hemolysis at 100 µM in data set [1] is < 1%.
As to `N=C(N)NCCNC(=O)[C@H](Cc1c[nH]c2ccccc12)NC(=O)c1cc(C(=O)N[C@@H](Cc2c[nH]c3ccccc23)C(=O)NCCNC(=N)N)cc(C(=O)N[C@@H](Cc2c[nH]c3ccccc23)C(=O)NCCNC(=N)N)c1`, the values for the MIC with Escherichia coli and with Bacillus subtilis were > 125 µM and 3.9 µM (≈ 3.98 µg/mL), respectively. Further, the hemolysis at 100 µM in data set [1] turned out to be 5.1%.
`NCCCCCNC(=O)[C@H](Cc1c[nH]c2ccccc12)NC(=O)c1cc(C(=O)N[C@@H](Cc2c[nH]c3ccccc23)C(=O)NCCCCCN)cc(C(=O)N[C@@H](Cc2c[nH]c3ccccc23)C(=O)NCCCCCN)c1`: the minimal inhibitory concentration (MIC) in the data set on Escherichia coli turned out to be 62.5 µM (≈ 63.8 µg/mL); in the data set on Bacillus subtilis, 31.3 µM (≈ 32 µg/mL). For the same molecule, in data set [1], the hemolysis at 100 µM amounted to 0.4%.
On to `NCCNC(=O)[C@H](Cc1c[nH]c2ccccc12)NC(=O)c1cc(C(=O)N[C@@H](Cc2c[nH]c3ccccc23)C(=O)NCCN)cc(C(=O)N[C@@H](Cc2c[nH]c3ccccc23)C(=O)NCCN)c1`, for which the MIC in the data set with Escherichia coli was > 125 µM; against Bacillus subtilis it was 31.3 µM (≈ 28 µg/mL). Further, the hemolysis at 100 µM in data set [1] was 1.2%.
The corresponding values for `O=C(O)c1cc(C(=O)O)cc(C(=O)O)c1` are > 250 µM, > 250 µM and < 1%.
Taken in the same sequence, the figures for `NCCCC[C@@H]1NC(=O)[C@H](CCCCN)NC(=O)[C@H](Cc2ccccc2)NC(=O)[C@H](CCCCN)NC(=O)[C@H](Cc2c[nH]c3ccccc23)NC(=O)[C@H](Cc2c[nH]c3ccccc23)NC1=O` (cyclo(FKKWWK)) were 25 µM (≈ 22.6 µg/mL), 25 µM (≈ 22.6 µg/mL) and 10%.
In the case of `N=C(N)NCCC[C@@H]1NC(=O)[C@H](CCCNC(=N)N)NC(=O)[C@H](Cc2ccccc2)NC(=O)[C@H](CCCNC(=N)N)NC(=O)[C@H](Cc2c[nH]c3ccccc23)NC(=O)[C@H](Cc2c[nH]c3ccccc23)NC1=O` (cyclo(RRWWRF)), the figures for the MIC against Escherichia coli and in the data set on Bacillus subtilis were 6.3 µM (≈ 6.23 µg/mL) and 3.1 µM (≈ 3.06 µg/mL), respectively. For the same molecule, in data set [1], the hemolysis at 100 µM was 24%.
